Laboratory results from patent US20080171072A1, “OCULAR INSERTS CONTAINING APOMORPHINE” (priority 2006, published 2008).

What was measured:
[1] = Autoclaving of the casting solution; type: physicochemical; settings: preliminary trial
canine patients [2] = test system: canine patients
canine patients [3] = settings: intravenous route
Description: On the report forms supplied with the product, if any of these occurred the clinicians were asked to grade them on a subjective scale of 1 to 5 with a score of 1 being mild and 5 being severe. The clinicians were also asked to rate the ease of use of the inserts for each case with a score of 5 being very easy to use and 1 being very difficult.

[4] = subjective scale, 5 severe, Median (25%-75%)

SMILES | stability under conditions required for autoclaving [1] | % of Patients, Success (canine patients [2]; intravenous 0.03-0.04 mg kg-1, emesis within 15 minutes, n 32) | Time to emesis (canine patients [2]; intravenous 0.03-0.04 mg kg-1, median, n 32 (Success 29)) | % of Patients, Failure (canine patients [2]; intravenous 0.03-0.04 mg kg-1, n 32) | % of patients showing no emesis at all (canine patients [2]; intravenous route, n 32) | Prolonged vomiting, Frequency (%) (canine patients [3]; n = 32) | Sedation, Frequency (%) (canine patients [3]; n = 32) | Tachycardia, Frequency (%) (canine patients [3]; n = 32) | Prolonged vomiting, Score (canine patients [3]; [4]) | Sedation, Score (canine patients [3]; [4]) | Tachycardia, Score (canine patients [3]; [4])
CN1CCc2cccc3c2[C@H]1Cc1ccc(O)c(O)c1-3 [apomorphine] | unstable |  |  |  |  |  |  |  |  |  | 
CN1CCc2cccc3c2[C@H]1Cc1ccc(O)c(O)c1-3.Cl [intravenous apomorphine, apomorphine HCI] |  | 90.6% | 1.0 min | 9.4% | 9.4% | 3.1% | 43.8% | 15.6% | 3 (3-3) | 2 (1-2) | 2 (2-3)
